Measurements reported in BindingDB's records for PubMed 1836757 (University of Heidelberg, 1991).

Biological target: 5-hydroxytryptamine receptor 1A/1B/1D/2C (Homo sapiens, UniProt P08908+P28221+P28222+P28335)
Sequence (P08908 whole entry): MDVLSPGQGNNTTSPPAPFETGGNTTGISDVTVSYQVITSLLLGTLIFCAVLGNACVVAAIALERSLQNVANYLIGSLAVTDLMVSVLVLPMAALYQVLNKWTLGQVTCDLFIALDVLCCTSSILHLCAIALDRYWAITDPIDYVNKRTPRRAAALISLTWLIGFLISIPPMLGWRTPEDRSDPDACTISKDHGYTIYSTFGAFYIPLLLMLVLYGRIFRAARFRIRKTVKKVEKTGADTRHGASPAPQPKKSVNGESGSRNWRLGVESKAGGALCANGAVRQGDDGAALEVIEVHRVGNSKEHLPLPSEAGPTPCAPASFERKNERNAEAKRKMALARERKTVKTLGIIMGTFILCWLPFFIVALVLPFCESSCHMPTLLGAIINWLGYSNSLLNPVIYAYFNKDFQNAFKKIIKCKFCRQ
Sequence (P28222 whole entry): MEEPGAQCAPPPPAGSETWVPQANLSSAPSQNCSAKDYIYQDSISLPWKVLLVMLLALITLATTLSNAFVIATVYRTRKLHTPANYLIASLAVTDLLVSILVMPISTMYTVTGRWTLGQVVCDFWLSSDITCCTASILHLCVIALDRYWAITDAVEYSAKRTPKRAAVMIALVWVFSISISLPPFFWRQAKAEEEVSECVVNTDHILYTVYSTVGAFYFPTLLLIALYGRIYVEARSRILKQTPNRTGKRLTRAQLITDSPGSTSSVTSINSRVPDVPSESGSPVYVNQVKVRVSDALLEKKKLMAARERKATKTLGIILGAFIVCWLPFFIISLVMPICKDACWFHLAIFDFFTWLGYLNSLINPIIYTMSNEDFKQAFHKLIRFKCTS
Sequence (P28221 whole entry): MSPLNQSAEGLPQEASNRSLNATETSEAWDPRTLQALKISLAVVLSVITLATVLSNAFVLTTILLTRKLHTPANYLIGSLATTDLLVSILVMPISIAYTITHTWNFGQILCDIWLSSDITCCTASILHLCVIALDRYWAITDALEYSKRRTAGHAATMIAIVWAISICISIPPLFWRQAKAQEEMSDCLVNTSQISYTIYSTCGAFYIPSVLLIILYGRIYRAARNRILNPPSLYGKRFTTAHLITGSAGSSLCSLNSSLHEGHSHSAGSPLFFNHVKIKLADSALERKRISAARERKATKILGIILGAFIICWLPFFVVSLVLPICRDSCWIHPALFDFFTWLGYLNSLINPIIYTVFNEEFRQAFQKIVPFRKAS
Sequence (P28335 whole entry): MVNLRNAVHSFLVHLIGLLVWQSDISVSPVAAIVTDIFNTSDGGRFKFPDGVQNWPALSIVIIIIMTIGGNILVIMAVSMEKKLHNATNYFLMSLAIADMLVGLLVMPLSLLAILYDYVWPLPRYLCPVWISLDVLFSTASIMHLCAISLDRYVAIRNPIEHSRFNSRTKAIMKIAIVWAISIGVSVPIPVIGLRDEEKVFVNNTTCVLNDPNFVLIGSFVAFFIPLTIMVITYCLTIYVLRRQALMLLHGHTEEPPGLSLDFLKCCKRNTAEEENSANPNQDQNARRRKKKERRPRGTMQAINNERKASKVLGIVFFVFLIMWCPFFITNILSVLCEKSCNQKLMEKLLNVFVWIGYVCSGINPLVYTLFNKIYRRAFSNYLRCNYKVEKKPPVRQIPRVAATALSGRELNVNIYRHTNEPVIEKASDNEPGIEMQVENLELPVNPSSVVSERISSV

Row | Structure (SMILES) | Ki [nM]
1 | CN1C2CCC1CC(OC(=O)c1c[nH]c3ccccc13)C2 (configuration not stated) | > 10000
2 | CC[C@@H](CO)NC(=O)[C@@H]1C=C2c3cccc4c3c(cn4C)C[C@H]2N(C)C1 | 436
